Measurements from ChEMBL document CHEMBL1131307, “Novel nonnucleoside inhibitors of HIV-1 reverse transcriptase. 8. 8-Aryloxymethyl- and 8-arylthiomethyldipyridodiazepinones” (J Med Chem, 1998).
Values belong to the compound of their own block, whether it stands above or below them.

Tests used:
[1] = system: Human immunodeficiency virus type 1 reverse transcriptase (Human immunodeficiency virus 1), Q72547 [R221A]; assay: Inhibitory activity against HIV-1 Y188L reverse transcriptase at 1 uM concentration
[2] = system: Human immunodeficiency virus type 1 reverse transcriptase (Human immunodeficiency virus 1), Q72547 [Y181C]; assay: Inhibitory activity against HIV-1 Y181C reverse transcriptase at 1 uM concentration
[3] = target: Human immunodeficiency virus type 1 reverse transcriptase (Human immunodeficiency virus 1, UniProt Q72547); assay: Inhibitory activity against HIV-1 wild-type reverse transcriptase.
[4] = target: Human immunodeficiency virus type 1 reverse transcriptase (Human immunodeficiency virus 1, UniProt Q72547, Y188L); assay: Inhibitory activity against HIV-1 Y188L reverse transcriptase.
[5] = target: Human immunodeficiency virus type 1 reverse transcriptase (Human immunodeficiency virus 1, UniProt Q72547, Y181C); assay: Inhibitory activity against HIV-1 Y181C reverse transcriptase.
[6] = system: C8166; assay: (§1) Inhibitory activity against HIV-1 IIIB replication in C8166 cells.; format: functional; conditions: Homo sapiens
[7] = system: C8166; assay: as §1; format: functional, cell-based; conditions: Homo sapiens
[8] = organism: Homo sapiens; assay: (§2) In vitro metabolism in human liver microsomes
[9] = Compound was tested for its toxicity by using MTT toxicity assay.
[10] = target: Human immunodeficiency virus type 1 reverse transcriptase (Human immunodeficiency virus 1) (UniProt Q72547); assay: Inhibitory activity against HIV-1 wild-type reverse transcriptase at 1 uM concentration
[11] = system: Human immunodeficiency virus type 1 reverse transcriptase (Human immunodeficiency virus 1), Q72547 [R221A]; assay: Inhibitory activity against HIV-1 Y188L reverse transcriptase t 1 uM concentration
[12] = target: Human immunodeficiency virus type 1 reverse transcriptase (Human immunodeficiency virus 1, UniProt Q72547, K103N); assay: Inhibitory activity against HIV-1 Mutant Reverse transcriptase K103N
[13] = organism: Homo sapiens; assay: as §2; format: ADME

SMILES: CCN1c2ncc(COc3ccc(O)cc3)cc2C(=O)N(C)c2ccc(Cl)nc21
inhibition [1]: 21% | inhibition [2]: 27% | IC50 [3]: 210 nM

SMILES: CCN1c2ncc(COc3cccc(N)c3)cc2C(=O)N(C)c2ccc(Cl)nc21
IC50 [4]: 370 nM | IC50 [5]: 100 nM | IC90 [6]: 36 nM | IC50 [7]: 19 nM | IC50 [3]: 50 nM

Metabolism [8]: 144 pmol/min/mg
SMILES: CC(C)Nc1cccnc1N1CCN(C(=O)c2cc3cc(NS(C)(=O)=O)ccc3[nH]2)CC1 [DELAVIRDINE]

SMILES: CCN1c2ncc(COc3ccc4[nH]ccc4c3)cc2C(=O)N(C)c2ccc(Cl)nc21
IC50 [5]: 90 nM | IC50 [3]: 310 nM

SMILES: CCN1c2ncc(C[S+]([O-])c3ccccc3)cc2C(=O)N(C)c2ccc(Cl)nc21 (configuration not stated)
IC50 [4]: 2420 nM | IC50 [5]: 140 nM | CC30 [9]: 45000 nM | IC50 [3]: 70 nM

SMILES: CCN1c2ncc(COc3cccc([N+](=O)[O-])c3)cc2C(=O)N(C)c2ccc(Cl)nc21
IC50 [5]: 350 nM | IC50 [3]: 170 nM

SMILES: CCN1c2ncc(COc3ccccc3O)cc2C(=O)N(C)c2ccc(Cl)nc21
IC50 [5]: 350 nM | IC50 [3]: 100 nM

SMILES: CCN1c2ncc(COc3cccc(N(C)C)c3)cc2C(=O)N(C)c2ccc(Cl)nc21
inhibition [10]: 0% | inhibition [1]: 7% | inhibition [2]: 0%

SMILES: CCN1c2ncc(COc3cc[n+]([O-])c(C(F)(F)F)c3)cc2C(=O)N(C)c2ccc(Cl)nc21
IC50 [5]: 270 nM | IC50 [3]: 120 nM

SMILES: CCN1c2ncc(CS(=O)(=O)c3ccccc3)cc2C(=O)N(C)c2ccc(Cl)nc21
IC50 [4]: 11000 nM | IC50 [5]: 60 nM | Metabolism [8]: 322 pmol/min/mg | IC50 [3]: 100 nM

SMILES: CCN1c2ncc(OCc3ccccc3)cc2C(=O)N(C)c2ccc(Cl)nc21
inhibition [10]: 20% | inhibition [1]: 0% | inhibition [2]: 0%

SMILES: CCN1c2ncc(C(=O)N(C)c3ccccc3)cc2C(=O)N(C)c2ccc(Cl)nc21
inhibition [10]: 15% | inhibition [2]: 20% | inhibition [11]: 46%

SMILES: CCN1c2ncc(CNc3ccccc3)cc2C(=O)N(C)c2ccc(Cl)nc21
IC50 [5]: 370 nM | IC50 [12]: 50 nM | CC30 [9]: > 60000 nM | IC50 [3]: 80 nM

SMILES: CCN1c2ncc(COc3cccc4[nH]ccc34)cc2C(=O)N(C)c2ccc(Cl)nc21
IC50 [4]: 1360 nM | IC50 [5]: 200 nM | Metabolism [8]: 208 pmol/min/mg | CC30 [9]: > 30000 nM | IC50 [3]: 330 nM

SMILES: CCN1c2ncc(CCc3ccccc3)cc2C(=O)N(C)c2ccc(Cl)nc21
IC50 [4]: 960 nM | IC50 [5]: 150 nM | Metabolism [8]: 288 pmol/min/mg | IC50 [12]: 50 nM | IC50 [3]: 50 nM

SMILES: CCN1c2ncc(CSc3ccncc3)cc2C(=O)N(C)c2ccc(Cl)nc21
IC50 [5]: 50 nM | Metabolism [8]: 372 pmol/min/mg | IC50 [3]: 20 nM

SMILES: CCN1c2ncc(CSc3[nH]cnc4nncc3-4)cc2C(=O)N(C)c2ccc(Cl)nc21
IC50 [4]: 120 nM | IC50 [5]: 70 nM | Metabolism [8]: 336 pmol/min/mg | CC30 [9]: 40000 nM | IC50 [3]: 50 nM

SMILES: CCN1c2ncc(CSc3ncccn3)cc2C(=O)N(C)c2ccc(Cl)nc21
IC50 [5]: 60 nM | IC50 [3]: 30 nM

SMILES: CCN1c2ncc(COc3ccnc(C)c3)cc2C(=O)N(C)c2ccc(Cl)nc21
IC50 [4]: 230 nM | IC50 [5]: 30 nM | IC50 [3]: 30 nM

SMILES: CCN1c2ncc(CNc3cccc(N)c3)cc2C(=O)N(C)c2ccc(Cl)nc21
IC50 [5]: 100 nM | CC30 [9]: 60000 nM | IC50 [3]: 60 nM

SMILES: CCN1c2ncc(N(C)C(=O)c3ccccc3)cc2C(=O)N(C)c2ccc(Cl)nc21
inhibition [1]: 13% | inhibition [2]: 22% | IC50 [3]: 210 nM

SMILES: CCN1c2ncc(CSc3ccccc3)cc2C(=O)N(C)c2ccc(Cl)nc21
IC50 [4]: 30 nM | IC50 [5]: 10 nM | Metabolism [8]: 554 pmol/min/mg | IC90 [6]: 13 nM | IC50 [7]: 5 nM | IC50 [12]: 30 nM | CC30 [9]: > 60000 nM | IC50 [3]: 20 nM

SMILES: CCN1c2ncc(COc3cc[n+]([O-])cc3)cc2C(=O)N(C)c2ccc(F)nc21
inhibition [1]: 31%

SMILES: CCN1c2ncc(COc3cccc(C(=O)OC)c3)cc2C(=O)N(C)c2ccc(Cl)nc21
inhibition [1]: 11% | inhibition [2]: 23% | IC50 [3]: 700 nM

SMILES: CCN1c2ncc(COc3ccncc3)cc2C(=O)N(C)c2ccc(F)nc21
IC50 [5]: 190 nM | Metabolism [8]: 41 pmol/min/mg | IC50 [12]: 40 nM | CC30 [9]: 160000 nM | IC50 [3]: 50 nM

SMILES: CCN1c2ncc(CN(C)c3ccccc3)cc2C(=O)N(C)c2ccc(Cl)nc21
inhibition [1]: 17% | inhibition [2]: 18% | IC50 [3]: 590 nM

SMILES: CCN1c2ncc(COc3ccccc3)cc2C(=O)N(C)c2ccc(Cl)nc21
IC50 [4]: 640 nM | IC50 [5]: 60 nM | Metabolism [8]: 171 pmol/min/mg | IC90 [6]: 113 nM | IC50 [7]: 50 nM | IC50 [12]: 20 nM | CC30 [9]: > 60000 nM | IC50 [3]: 110 nM

SMILES: CCN1c2ncc(COc3cc[n+]([O-])cc3)cc2C(=O)N(C)c2ccc(Cl)nc21
inhibition [1]: 0% | inhibition [2]: 39% | IC50 [3]: 230 nM

SMILES: CCN1c2ncc(NCc3ccccc3)cc2C(=O)N(C)c2ccc(Cl)nc21
IC50 [5]: 390 nM | inhibition [1]: 0% | IC50 [3]: 260 nM

SMILES: CCN1c2ncc(COc3cccc(C(=O)O)c3)cc2C(=O)N(C)c2ccc(Cl)nc21
IC50 [5]: 550 nM | IC50 [12]: 190 nM | CC30 [9]: 250000 nM | IC50 [3]: 90 nM

SMILES: CCN1c2ncc(COc3cccc(F)c3)cc2C(=O)N(C)c2ccc(Cl)nc21
inhibition [10]: 24% | inhibition [1]: 16% | inhibition [2]: 11%

SMILES: CCN1c2ncc(COc3ccc(C(=O)OC)cc3)cc2C(=O)N(C)c2ccc(Cl)nc21
inhibition [1]: 0% | inhibition [2]: 33% | IC50 [3]: 800 nM

SMILES: CCN1c2ncc(COc3cccc(OC)c3)cc2C(=O)N(C)c2ccc(Cl)nc21
IC50 [5]: 280 nM | IC50 [12]: 130 nM | IC50 [3]: 100 nM

SMILES: CCN1c2ncc(COc3ccncc3)cc2C(=O)N(C)c2ccc(Cl)nc21
IC50 [5]: 260 nM | Metabolism [8]: 53 pmol/min/mg | IC90 [6]: 24 nM | IC50 [7]: 6 nM | IC50 [12]: 70 nM | CC30 [9]: > 120000 nM | IC50 [3]: 70 nM

SMILES: Cc1ccnc2c1NC(=O)c1cccnc1N2C1CC1 [NEVIRAPINE]
Metabolism [13]: 2 pmol/min/mg

SMILES: CCN1c2ncc(COc3ccnc(C(F)(F)F)c3)cc2C(=O)N(C)c2ccc(Cl)nc21
IC50 [5]: 70 nM | Metabolism [8]: 206 pmol/min/mg | IC50 [3]: 40 nM

SMILES: CCN1c2ncc(COc3cc[n+]([O-])cc3)cc2C(=O)N(C)c2cccnc21
IC50 [5]: 1340 nM | IC50 [3]: 210 nM

SMILES: CCN1c2ncc(COc3ccccc3C(=O)OC)cc2C(=O)N(C)c2ccc(Cl)nc21
inhibition [10]: 25% | inhibition [1]: 2% | inhibition [2]: 2%

SMILES: CCN1c2ncc(COc3ccc(F)cc3)cc2C(=O)N(C)c2ccc(Cl)nc21
IC50 [5]: 1660 nM | IC50 [3]: 280 nM

SMILES: CCN1c2ncc(COc3cc[n+]([O-])c(C)c3)cc2C(=O)N(C)c2ccc(Cl)nc21
IC50 [4]: 4310 nM | IC50 [5]: 210 nM | IC50 [3]: 100 nM

SMILES: CCN1c2ncc(COc3ccncc3)cc2C(=O)N(C)c2cccnc21
IC50 [4]: 5520 nM | IC50 [5]: 140 nM | IC50 [12]: 50 nM | CC30 [9]: > 256000 nM | IC50 [3]: 20 nM

SMILES: CCN1c2ncc(CCc3ccncc3)cc2C(=O)N(C)c2ccc(Cl)nc21
IC50 [4]: 1850 nM | IC50 [5]: 120 nM | Metabolism [8]: 145 pmol/min/mg | IC50 [12]: 120 nM | IC50 [3]: 80 nM

SMILES: CCN1c2ncc(COc3cccnc3)cc2C(=O)N(C)c2ccc(Cl)nc21
IC50 [5]: 260 nM | IC50 [3]: 190 nM

SMILES: CCN1c2ncc(COc3cccc(C(N)=O)c3)cc2C(=O)N(C)c2ccc(Cl)nc21
IC50 [4]: 340 nM | IC50 [5]: 280 nM | Metabolism [8]: 292 pmol/min/mg | CC30 [9]: 130000 nM | IC50 [3]: 30 nM
